# What was measured:
# [1] = Percentage bioactive sulfur contained in hydrogen sulfide prodrugs; assay type: physicochemical; details: sulfur capable of being converted into hydrogen sulfide in vivo
# [2] = test system: p47^phox (a subunit of NOX); details: Shukla et al., BJU Int. 2009; cited from earlier work
# [3] = target: phosphodiesterase type 5 (PDE5) (Homo sapiens, UniProt O76074); details: Sparatore et al. 2011; cited from earlier work
# NADPH oxidase (NOX) = details: Sparatore et al. 2011; cited from earlier work
# cavernosal smooth muscle = details: Shukla et al., BJU Int. 2009; cited from earlier work
# superoxide formation = details: Shukla et al., BJU Int. 2009; cited from earlier work
# pregnant rat uterus = pregnant rat uterus in vitro, Sidhu et al. 2001; cited from earlier work
# angiogenesis = details: NaHS in the drinking water, via increasing VEGF expression, Givvimani et al. 2011; cited from earlier work
# [4] = Solubility in carbon disulfide; assay type: physicochemical
# Protocol: The solubility of the composition in carbon disulfide was obtained by adding 6 mL of carbon disulfide to 0.500 g of the final product and determining the weight of the residue.
Structure (SMILES),% Bioactive sulfur (w/w) [1],other results
NC(=S)c1ccc(O)cc1 [4-hydroxythiobenzamide],20.9 % (w/w),–
CCCc1nn(C)c2c(=O)[nH]c(-c3cc(S(=O)(=O)N4CCN(CC(=O)Oc5ccc(-c6cc(=S)ss6)cc5)CC4)ccc3OCC)nc12 [ACS 6],3.5 % (w/w),inhibition of expression of p47phox [2]: more than sildenafil citrate; effect of H2S released by ACS6 on PDE5 [3]: inhibits; effect of H2S released by ACS6 on NOX expression activity (NADPH oxidase (NOX)): inhibits; relaxation of cavernosal smooth muscle (cavernosal smooth muscle): equipotently; inhibition of superoxide formation (superoxide formation): more than sildenafil citrate
O=C(Cc1ccccc1Nc1c(Cl)cccc1Cl)Oc1ccc(-c2cc(=S)ss2)cc1 [ACS 15],6.3 % (w/w),–
O=C(CCC/C=C\C[C@@H]1[C@@H](CC[C@@H](O)CCc2ccccc2)[C@H](O)C[C@@H]1O)Oc1ccc(-c2cc(=S)ss2)cc1 [ACS 67],5.3 % (w/w),–
COc1ccc2c(c1)c(CC(=O)Oc1ccc(-c3cc(=S)ss3)cc1)c(C)n2C(=O)c1ccc(Cl)cc1 [ATB 343],5.6 % (w/w),–
COc1ccc2cc(C(C)C(=O)Oc3ccc(C(N)=S)cc3)ccc2c1 (stereo not drawn) [ATB 346],8.8 % (w/w),–
C=CCSSCC=C [Diallyl disulfide],45.1 % (w/w),–
C=CCSSSCC=C [Diallyl trisulfide],53.9 % (w/w),–
c1ccc(CSSSCc2ccccc2)cc1 [Dibenzyl trisulfide],11.5 % (w/w),–
C1COCCN1.COc1ccc(P(=S)(S)N2CCOCC2)cc1 (stereo not drawn) [GYY 4137],8.5 % (w/w),–
[Na+].[Na+].[S-2] [Na2S],41 % (w/w),–
"S [NaHS, sodium hydrogen sulfide]",57 % (w/w),uterine spontaneous contractility (pregnant rat uterus): significant dose-dependent decreases; angiogenesis (angiogenesis): augmented angiogenesis
"[S] [Pure alpha- or beta-elemental sulfur, elemental sulfur]",–,Solubility in carbon disulfide [4]: completely soluble
C[S+]([O-])CCCCN=C=S (stereo not drawn) [Sulforaphane],18 % (w/w),–

# From patent publication US20150064286A1, “PREPARATION AND COMPOSITIONS OF HIGHLY BIOAVAILABLE ZEROVALENT SULFUR AND USES THEREOF” (EMORY UNIVERSITY, priority 2011, published 2015)
